# In PubChem BioAssay (NCI):
#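 Five compound concentrations were applied to cells in 96-well plates for 48 hours; endpoints were derived by simple linear interpolation of the resulting dose-response curve. The concentration for 50% growth inhibition is given as GI50. TGI: total growth inhibition.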
# Experiments:
# Test in all cases: NCI tumour cell line growth inhibition, 48 h
# 786-0 renal = system: 786-0 renal
# A498 renal = system: A498 renal
# A549 NSCLC = system: A549 NSCLC
# ACHN renal = system: ACHN renal
# BT-549 breast = system: BT-549 breast
# CAKI-1 renal = system: CAKI-1 renal
# CCRF-CEM leukemia = system: CCRF-CEM leukemia
# COLO 205 colon = system: COLO 205 colon
# DU-145 prostate = system: DU-145 prostate
# EKVX NSCLC = system: EKVX NSCLC
# HCC-2998 colon = system: HCC-2998 colon
# HCT-116 colon = system: HCT-116 colon
# HCT-15 colon = system: HCT-15 colon
# HL-60(TB) leukemia = system: HL-60(TB) leukemia
# HOP-62 NSCLC = system: HOP-62 NSCLC
# HOP-92 NSCLC = system: HOP-92 NSCLC
# HS 578T breast = system: HS 578T breast
# HT29 colon = system: HT29 colon
# IGROV1 ovarian = system: IGROV1 ovarian
# K-562 leukemia = system: K-562 leukemia
# KM12 colon = system: KM12 colon
# LOX IMVI melanoma = system: LOX IMVI melanoma
# M14 melanoma = system: M14 melanoma
# MALME-3M melanoma = system: MALME-3M melanoma
# MCF7 breast = system: MCF7 breast
# MDA-MB-231 breast = system: MDA-MB-231 breast
# MDA-MB-435 = system: MDA-MB-435
# MDA-MB-468 breast = system: MDA-MB-468 breast
# MOLT-4 leukemia = system: MOLT-4 leukemia
# NCI-H226 lung = system: NCI-H226 lung
# NCI-H23 lung = system: NCI-H23 lung
# NCI-H460 lung = system: NCI-H460 lung
# NCI-H522 lung = system: NCI-H522 lung
# NCI/ADR-RES ovarian = system: NCI/ADR-RES ovarian
# OVCAR-3 ovarian = system: OVCAR-3 ovarian
# OVCAR-4 ovarian = system: OVCAR-4 ovarian
# OVCAR-5 ovarian = system: OVCAR-5 ovarian
# OVCAR-8 ovarian = system: OVCAR-8 ovarian
# PC-3 prostate = system: PC-3 prostate
# RPMI-8226 leukemia = system: RPMI-8226 leukemia
# RXF 393 renal = system: RXF 393 renal
# SF-268 CNS = system: SF-268 CNS
# SF-295 CNS = system: SF-295 CNS
# SF-539 CNS = system: SF-539 CNS
# SK-MEL-2 melanoma = system: SK-MEL-2 melanoma
# SK-MEL-28 melanoma = system: SK-MEL-28 melanoma
# SK-MEL-5 melanoma = system: SK-MEL-5 melanoma
# SK-OV-3 ovarian = system: SK-OV-3 ovarian
# SN12C renal = system: SN12C renal
# SNB-19 CNS = system: SNB-19 CNS
# SNB-75 CNS = system: SNB-75 CNS
# SR leukemia = system: SR leukemia
# SW-620 colon = system: SW-620 colon
# T-47D breast = system: T-47D breast
# TK-10 renal = system: TK-10 renal
# U251 CNS = system: U251 CNS
# UACC-257 melanoma = system: UACC-257 melanoma
# UACC-62 melanoma = system: UACC-62 melanoma
# UO-31 renal = system: UO-31 renal
structure (smiles),measurement,setting,value
O=C(CN1CCN(c2ncnc3c2cnn3-c2ccccc2)CC1)Nc1nncs1,GI50,786-0 renal,1.99 µM
same,TGI,786-0 renal,3.56 µM
same,GI50,A498 renal,18.4 µM
same,TGI,A498 renal,35 µM
same,GI50,A549 NSCLC,2.07 µM
same,TGI,A549 NSCLC,4.31 µM
same,GI50,ACHN renal,1.79 µM
same,TGI,ACHN renal,3.18 µM
same,GI50,BT-549 breast,1.55 µM
same,TGI,BT-549 breast,3.02 µM
same,GI50,CAKI-1 renal,1.6 µM
same,TGI,CAKI-1 renal,2.97 µM
same,GI50,CCRF-CEM leukemia,2.55 µM
same,TGI,CCRF-CEM leukemia,7.17 µM
same,GI50,COLO 205 colon,14 µM
same,TGI,COLO 205 colon,27 µM
same,GI50,DU-145 prostate,1.8 µM
same,TGI,DU-145 prostate,3.24 µM
same,GI50,EKVX NSCLC,2.9 µM
same,TGI,EKVX NSCLC,11.1 µM
same,GI50,HCC-2998 colon,13.6 µM
same,TGI,HCC-2998 colon,26.4 µM
same,GI50,HCT-116 colon,3.75 µM
same,TGI,HCT-116 colon,14.5 µM
same,GI50,HCT-15 colon,1.79 µM
same,TGI,HCT-15 colon,3.42 µM
same,GI50,HL-60(TB) leukemia,10.4 µM
same,TGI,HL-60(TB) leukemia,39.5 µM
same,GI50,HOP-62 NSCLC,1.62 µM
same,TGI,HOP-62 NSCLC,3.29 µM
same,GI50,HOP-92 NSCLC,1.57 µM
same,TGI,HOP-92 NSCLC,3.46 µM
same,GI50,HS 578T breast,12.4 µM
same,TGI,HS 578T breast,63 µM
same,GI50,HT29 colon,6.91 µM
same,TGI,HT29 colon,19.3 µM
same,GI50,IGROV1 ovarian,2.68 µM
same,TGI,IGROV1 ovarian,7.65 µM
same,GI50,K-562 leukemia,7.91 µM
same,TGI,K-562 leukemia,36.6 µM
same,GI50,KM12 colon,4.46 µM
same,TGI,KM12 colon,15.9 µM
same,GI50,LOX IMVI melanoma,1.49 µM
same,TGI,LOX IMVI melanoma,2.81 µM
same,GI50,M14 melanoma,4.17 µM
same,TGI,M14 melanoma,16.2 µM
same,GI50,MALME-3M melanoma,1.69 µM
same,TGI,MALME-3M melanoma,3.3 µM
same,GI50,MCF7 breast,4.32 µM
same,TGI,MCF7 breast,18 µM
same,GI50,MDA-MB-231 breast,1.78 µM
same,TGI,MDA-MB-231 breast,3.87 µM
same,GI50,MDA-MB-435,13.6 µM
same,TGI,MDA-MB-435,27.5 µM
same,GI50,MDA-MB-468 breast,3.05 µM
same,TGI,MDA-MB-468 breast,13.7 µM
same,GI50,MOLT-4 leukemia,4.08 µM
same,TGI,MOLT-4 leukemia,31.3 µM
same,GI50,NCI-H226 lung,1.84 µM
same,TGI,NCI-H226 lung,5.14 µM
same,GI50,NCI-H23 lung,1.74 µM
same,TGI,NCI-H23 lung,3.57 µM
same,GI50,NCI-H460 lung,4.25 µM
same,TGI,NCI-H460 lung,14.7 µM
same,GI50,NCI-H522 lung,1.62 µM
same,TGI,NCI-H522 lung,3.09 µM
same,GI50,NCI/ADR-RES ovarian,1.77 µM
same,TGI,NCI/ADR-RES ovarian,3.69 µM
same,GI50,OVCAR-3 ovarian,1.93 µM
same,TGI,OVCAR-3 ovarian,3.67 µM
same,GI50,OVCAR-4 ovarian,10.3 µM
same,TGI,OVCAR-4 ovarian,28.1 µM
same,GI50,OVCAR-5 ovarian,6.41 µM
same,TGI,OVCAR-5 ovarian,19.3 µM
same,GI50,OVCAR-8 ovarian,1.93 µM
same,TGI,OVCAR-8 ovarian,4.02 µM
same,GI50,PC-3 prostate,4.33 µM
same,TGI,PC-3 prostate,17.1 µM
same,GI50,RPMI-8226 leukemia,2.83 µM
same,TGI,RPMI-8226 leukemia,8.67 µM
same,GI50,RXF 393 renal,1.68 µM
same,TGI,RXF 393 renal,3.31 µM
same,GI50,SF-268 CNS,4.79 µM
same,TGI,SF-268 CNS,19.3 µM
same,GI50,SF-295 CNS,10.3 µM
same,TGI,SF-295 CNS,22.3 µM
same,GI50,SF-539 CNS,1.76 µM
same,TGI,SF-539 CNS,3.32 µM
same,GI50,SK-MEL-2 melanoma,12.6 µM
same,TGI,SK-MEL-2 melanoma,25.8 µM
same,GI50,SK-MEL-28 melanoma,13.9 µM
same,TGI,SK-MEL-28 melanoma,26.9 µM
same,GI50,SK-MEL-5 melanoma,10.2 µM
same,TGI,SK-MEL-5 melanoma,21.9 µM
same,GI50,SK-OV-3 ovarian,12.5 µM
same,TGI,SK-OV-3 ovarian,25 µM
same,GI50,SN12C renal,1.94 µM
same,TGI,SN12C renal,5.06 µM
same,GI50,SNB-19 CNS,12.2 µM
same,TGI,SNB-19 CNS,24.6 µM
same,GI50,SNB-75 CNS,15.1 µM
same,TGI,SNB-75 CNS,30.5 µM
same,GI50,SR leukemia,2.11 µM
same,TGI,SR leukemia,5.26 µM
same,GI50,SW-620 colon,4.99 µM
same,TGI,SW-620 colon,16.1 µM
same,GI50,T-47D breast,7.93 µM
same,TGI,T-47D breast,24.1 µM
same,GI50,TK-10 renal,3.09 µM
same,TGI,TK-10 renal,6.14 µM
same,GI50,U251 CNS,1.92 µM
same,TGI,U251 CNS,3.99 µM
same,GI50,UACC-257 melanoma,14.1 µM
same,TGI,UACC-257 melanoma,28.1 µM
same,GI50,UACC-62 melanoma,4.97 µM
same,TGI,UACC-62 melanoma,18.7 µM
same,GI50,UO-31 renal,1.17 µM
same,TGI,UO-31 renal,2.39 µM
